Assay results as given in patent US10716859B2, “Excipients for stabilising viral particles, polypeptides or biological material” (priority 2010, dated 2020).

Key:
[1] = system: Recombinant adenovirus expressing enhanced GFP; experiment: Recovered adenoviral activity after 7 days at 4° C. or 37° C. with glycinergics or SMM (Example 4); format: cell-based; settings: one week at 37° C.
[2] = system: white cell fraction; experiment: White cell viability in human blood diluted with excipients, Guava Viacount (Example 18); format: cell-based; settings: equal volume dilution, 25° C. for 30 minutes
[3] = 0.07 M, sole excipient (no sugars)
[4] = 0.07 M, with sugars (1M Sucrose, 100 mM Raffinose)
[5] = 0.70 M, sole excipient (no sugars)
[6] = 0.70 M, with sugars (1M Sucrose, 100 mM Raffinose)

Which results are given for `CN(C)CC(=O)O` [DMG, N,N-Dimethylglycine]?
recovered viral activity [1, 3]: 27%; recovered viral activity [1, 4]: 37%; recovered viral activity [1, 5]: 41%; recovered viral activity [1, 6]: 52%; effect on white cell viability in the blood sample [2]: no adverse effects

For `C[S+](C)CC[C@H](N)C(=O)O` [SMM, S-methyl-L-methionine], which recovered viral activity [1, 3] is on record?
The recovered viral activity was 33%.

And the recovered viral activity ([1]; 0.23 M, sole excipient (no sugars))?
The recovered viral activity was 43%.

How did the recovered viral activity [1, 3] turn out when `C[N+](C)(C)CC(=O)O` [TMG, N,N,N-trimethylglycine] was run?
Its recovered viral activity is 21%.

What about the recovered viral activity [1, 4] of the same molecule?
Its recovered viral activity is 45%.

What about the recovered viral activity [1, 5] of the same molecule?
The recovered viral activity was 45%.

And the recovered viral activity [1, 6]?
The recovered viral activity was 38.7%.

Which results are given for `NCC(=O)O` [glycine, Glycine, reference compound]?
recovered viral activity [1, 3]: 29%; recovered viral activity [1, 4]: 41%; recovered viral activity [1, 5]: 45%; recovered viral activity [1, 6]: 54%

With `CNCC(=O)O` [sarcosine, N-Methyl-glycine] as the molecule, how does the recovered viral activity [1, 3] read?
Its recovered viral activity is 29%.

And the recovered viral activity [1, 4]?
The recovered viral activity was 37%.

What about the recovered viral activity [1, 5] of the same molecule?
Its recovered viral activity is 49%.

And the recovered viral activity [1, 6]?
The recovered viral activity was 56%.
